Assay results published in patent US11603568B2, “NOX2 as a biomarker of radiotherapy efficiency in cancer patients” (Institut Gustave-Roussy, priority 2016, dated 2023).

Experiments:
Assay type in all cases: cell-based
[1] = tested on: murine RAW264.7 macrophages; experiment: Immunoblots of ATMS1981*, ATM, IRF5 and NOX2 expression in murine RAW264.7 macrophages; settings: for ATM activation (ATMS1981*) by the agent / IRF5 expression induced by the agent: 24 hours, 10 μM CDDP, 200 ng/ml NCZ, 10 μM Olaparib (FIGS. 3E, 3H-3J)
Procedure: (§1) The human monocyte cell line THP1 cells and the murine macrophage-like RAW264.7 cells were maintained in RMPI-1640-Glutamax medium (Life technology) supplemented with 10% heat-inactivated fetal bovine serum (Hycultec GmbH) and 100 UI/ml penicillin-streptomycin (Life technology). To obtain THP1 macrophages, THP1 monocytes were differentiated with 320 nM of PMA (Invivogen) during 24 h. Then, cells were washed three times to remove PMA and non-adherent cells. For the generation of monocytes-derived macrophages (hMDM), buffy coats from healthy donor blood were obtained from the French blood bank (Etablissement Français du Sang) under the control of convention with the INSERM. In accordance with French law, written informed consent for the use of cells for clinical research was obtained from each donor. Monocytes were obtained from buffy coats and were differentiated into macrophages by using human AB serum in macrophage medium, as previously described. […] All cells were maintained under 5% CO2 humidified atmosphere at 37° C. For hypoxic experiments, cells were incubated in the hypoxic hood (Scitive) under 1% 02, with 5% CO2 humidified atmosphere at 37° C. Dimethyl Sulfoxide (DMSO), Lipopolysaccharides (LPS), Dimethyloxalylglycine (DMOG), NAcetyl-L-cysteine (NAC), Diphenyleneiodonium chloride (DPI), Neocarzinostatin (NCZ), cis-Diammineplatinum(II) dichloride (CDDP) were purchased from Sigma-Aldrich. Recombinant murine IFN-γ (mIFN-γ) was obtained from PeproTech Recombinant Human IFN-γ was from R&D Systems. KU55933 was from Tocris Bioscience. Mn(III)tetrakis (4-benzoic acid) porphyrin Chloride (MnTBAP) was from Calbiochem. Olaparib was from Selleckchem. Phorbol 12-myristate 13-acetate (PMA) was from Invivogen.
(§2) Human MDM (10^6) were activated by treatment with […] recombinant human IFN-γ for 24 h. THP1 monocytes were differentiated into macrophages by 320 nM PMA for 24 h. Then, macrophages were activated with 20 ng/ml recombinant human IFN-γ or 100 ng/ml LPS during 24 h. RAW264.7 macrophages were activated with 20 ng/ml recombinant murine IFN-γ or 100 ng/ml LPS for 24 h.
(§3) Cells were seeded in 6-well plates, 12-well plates or 25 cm^2 flasks and irradiated with gamma-ray irradiator IBL-637 (Cs137, 1 Gy/min, gamma CIS-Bio International, IBA, Saclay, France) or with X-ray irradiator (1Gy/min, X-RAD 320, Precision X-Ray). Cells were harvested at indicated time points (hMDMs and THP1 macrophages at 96 h, RAW264.7 macrophages at 6 h) after irradiation for subsequent experiments.
(§4) Cells were washed twice with cold PBS and lysed with NEHN buffer (0.5% NP40, 20% Glycerol, 300 mM NaCl, 20 mM Herps, pH 7.5, and 1 mM EDTA) complemented with 2.5 mM DTT and the protease and phosphatase inhibitor (Roche) at 4° C. 5-20 μg of proteins were separated by NuPAGE 4-12% or 10% SDS-PAGE gel (Invitrogen) and then were transferred onto a nitrocellulose membrane (0.2 Micron, Bio-Rad). Membranes were blocked with 5% nonfat milk or 5% Bovine Serum Albumine (BSA) in Tris-buffered saline and 0.1% Tween 20 (TBS-T) at room temperature for 1 h and then subsequently probed with primary antibodies (1/5000-1/1000) overnight at 4° C. Then, membranes were incubated with appropriate horseradish peroxidase-conjugated anti-rabbit or anti-mouse IgG (SouthernBiotech) for 1 h at room temperature.

[2] = tested on: macrophages; experiment: Macrophage viability (LDH release); settings: data not shown; cells and concentrations as in the activation experiments
Description: The release of LDH in the supernatants of cultured cells was detected using Cytotoxicity Detection KitPLUS (LDH) from Roche according to the manufacturers' instructions.

[3] = tested on: PMA-treated human THP1 monocytes; experiment: Immunoblots of ATMS1981*, ATM, IRF5 and NOX2 expression in PMA-treated human THP1 monocytes; settings: for ATM activation (ATMS1981*) by the agent / IRF5 expression induced by the agent: 24 hours, 20 ng/ml human IFN-γ, 100 ng/ml LPS, 10 μM CDDP (FIGS. 3D, 3F, 3G)
Procedure: as §1, §2, §3, §4

[4] = tested on: murine RAW264.7 macrophages; experiment: Detection of ROS production (H2DCFDA staining, flow cytometry); settings: for ROS production after IR or mIFN-γ in presence of the inhibitor: 2 Gy single dose or 20 ng/ml mIFN-γ, NAC 1 μg/ml, DPI 200 nM
Procedure: Hydrogen peroxide and anion superoxide production were determined by staining cells with 5 μM of 2,7-dichlorodihydrofluorescein diacetate (H2DCFDA, Sigma) for 40 min at 37° C. Cells were then washed twice with Hanks' balanced salt solution (HBSS, from Thermo Fisher Scientific) and suspended in cold HBSS solution containing 1% FBS for FACS analysis.
Considering that reactive oxygen species (ROS) have been involved in both ATM activation and macrophage differentiation, the role of ROS production during macrophage activation was investigated.

[5] = tested on: murine RAW264.7 macrophages; experiment: Confocal immunofluorescence of DNA damage-associated nuclear foci; settings: 24 h treatment; 20 ng/ml mIFN-γ, 100 ng/ml LPS or 10 μM CDDP (FIGS. 3A-3C)
Procedure: Cells were grown on coverslips and were treated as indicated. After treatment, cells were rinsed twice, fixed with 10% neutral buffered formalin (Sigma-Aldrich) for 10 min and then permeabilized with 0.3% Triton X-100 in PBS for 15 min. Cells were then washed twice with PBS and were blocked with 10% FBS in PBS for 1 h at room temperature, followed by incubation with primary antibodies (1/100) in 10% FBS in PBS for 1 h30 min at room temperature. Then, samples were incubated with secondary antibodies using Alexa Fluor-488 green or Alexa Fluor-546 red (1/500, Life Technologies) and Hoechst 33342 for nuclei (1/1000, Thermo Fisher Scientific) in 10% FBS in PBS for 30 min at room temperature. Coverslips were mounted with Fluoromount-G (SouthernBiotech) ant then visualized with Leica TCS SPE confocal microscope (Leica Microsystemes, France).

[6] = tested on: hMDM; experiment: Immunoblots of ATMS1981*, ATM, IRF5 and NOX2 expression in human monocyte-derived macrophages (hMDM)
Procedure: as §1, with “Dimethyl Sulfoxide (DMSO), Lipopolysaccharides (LPS), Dimethyloxalylglycine (DMOG), NAcetyl-L-cysteine (NAC), Diphenyleneiodonium chloride (DPI), Neocarzinostatin (NCZ), cis-Diammineplatinum(II) dichloride (CDDP) were purchased from Sigma-Aldrich. Recombinant murine IFN-γ (mIFN-γ) was obtained from PeproTech Recombinant Human IFN-γ was from R&D Systems. KU55933 was from Tocris Bioscience. Mn(III)tetrakis (4-benzoic acid) porphyrin Chloride (MnTBAP) was from Calbiochem. Olaparib was from Selleckchem. Phorbol 12-myristate 13-acetate (PMA) was from Invivogen.” left out

[7] = 10 μM MnTBAP, 8 Gy single dose, 48 hours (FIG. 4G)
[8] = 1 μg/ml NAC, 2 Gy, 6 hours or 20 ng/ml mIFN-γ, 24 hours (FIGS. 4E, 4F)
[9] = 10 μM Olaparib, 2 Gy, 6 hours (FIG. 2P)

Neocarzinostatin
ATM activation (ATMS1981*) by the agent ([1]; 20 ng/ml mIFN-γ): activated ATM
IRF5 expression induced by the agent ([1]; 20 ng/ml mIFN-γ): increased IRF5 expression

COC(=O)CNC(=O)C(=O)OC [DMOG, Dimethyloxalylglycine]
ATMS1981* and IRF5 expressions reduced after mIFN-γ stimulation ([1]; 500 μM DMOG, 20 ng/ml mIFN-γ, 24 hours (FIG. 4K)): confirmed
IR-mediated ATMS1981* and IRF5 expressions ([1]; 500 μM DMOG, 2 Gy single dose, 6 hours (FIG. 4I)): reduced

O=C(O)c1ccc(C2=C3C=CC(=N3)C(c3ccc(C(=O)O)cc3)=c3ccc([nH]3)=C(c3ccc(C(=O)O)cc3)c3ccc([n-]3)C(c3ccc(C(=O)O)cc3)c3ccc2[n-]3)cc1.[Cl-].[Mn+3] (stereo not drawn) [MnTBAP, Mn(III)tetrakis (4-benzoic acid) porphyrin Chloride]
macrophage viability [2]: without impacting macrophage viability
activating phosphorylation of ATM (ATMS1981*) after IR [3, 7]: inhibited
increased expression of IRF5 after IR [3, 7]: reduced
ROS production after IR or mIFN-γ in presence of the inhibitor [4]: blunted the ROS production

N.N.[Cl][Pt][Cl] [Cisplatin, cis-Diammineplatinum(II) dichloride]
ATM activation (ATMS1981*) by the agent [3]: activated ATM
IRF5 expression induced by the agent [3]: increased IRF5 expression
ATMS1981*+ and γ-H2AX+ nuclear foci [5]: activated ATM
ATM activation (ATMS1981*) by the agent ([1]; 20 ng/ml mIFN-γ): activated ATM
IRF5 expression induced by the agent ([1]; 20 ng/ml mIFN-γ): increased IRF5 expression

O=c1cc(-c2cccc3c2Sc2ccccc2S3)oc(N2CCOCC2)c1 [KU55933]
macrophage viability [2]: without altering macrophage viability
γ-H2AX and ATMS1981* phosphorylations and the up-regulation of IRF5 expression after irradiation ([6]; 10 μM KU55933, 4 Gy single dose, 96 hours (FIG. 2O)): impaired
γ-H2AX and ATMS1981* phosphorylations and the up-regulation of IRF5 expression after irradiation ([1]; 20 μM KU55933, 2 Gy single dose, 6 hours (FIG. 2N)): impaired

c1ccc2c(c1)[I+]c1ccccc1-2 [DPI, Diphenyleneiodonium chloride]
macrophage viability [2]: without modifying macrophage viability
ROS production after IR or mIFN-γ in presence of the inhibitor [4]: impaired
ATMPS1981* and IRF5 up-regulation after IR or mIFN-γ ([1]; 200 nM DPI, 2 Gy, 6 hours or 20 ng/ml mIFN-γ, 24 hours (FIGS. 5L, 5M)): impaired

CC(=O)N[C@@H](CS)C(=O)O [NAC, NAcetyl-L-cysteine]
macrophage viability [2]: without impacting macrophage viability
ROS production after IR or mIFN-γ in presence of the inhibitor [4]: blunted the ROS production
activating phosphorylation of ATM (ATMS1981*) after IR or mIFN-γ [1, 8]: inhibited
increased expression of IRF5 after IR or mIFN-γ [1, 8]: reduced

O=C(c1cc(Cc2n[nH]c(=O)c3ccccc23)ccc1F)N1CCN(C(=O)C2CC2)CC1 [Olaparib]
ATM activation after irradiation [1, 9]: enhancement of ATM activation
IRF5 expression after irradiation (inflammatory macrophage activation elicited by IR) [1, 9]: increased expression of IRF5
ATM activation (ATMS1981*) by the agent ([1]; 20 ng/ml mIFN-γ): activated ATM
IRF5 expression induced by the agent ([1]; 20 ng/ml mIFN-γ): increased IRF5 expression

B1: IFN-γ: Recombinant Human IFN-γ from R&D Systems, classical macrophage activator (protein, UniProt P01579 24-161, looked up)
Interferon gamma: QDPYVKEAENLKKYFNAGHSDVADNGTLFLGILKNWKEESDRKIMQSQIVSFYFKLFKNFKDDQSIQKSVETIKEDMNVKFFNSNKKKRDDFEKLTNYSVTDLNVQRKAIHELIQVMAELSPAAKTGKRKRSQMLFRG
NOX2 up-regulated (immunoblot) ([6]; 4 μg/ml hIFN-γ, 24 hours (FIG. 5B)): confirmed
NOX2 up-regulated (immunoblot) ([3]; 20 ng/ml hIFN-γ, 24 hours (FIG. 5C)): confirmed
ATM activation (ATMS1981*) by the agent [3]: activation of ATM
IRF5 expression induced by the agent [3]: increased expression of IRF5

B2: mIFN-γ: Recombinant murine IFN-γ from PeproTech, classical macrophage activator (protein, UniProt P01580 23-155, looked up)
Interferon gamma: HGTVIESLESLNNYFNSSGIDVEEKSLFLDIWRNWQKDGDMKILQSQIISFYLRLFEVLKDNQAISNNISVIESHLITTFFSNSKAKKDAFMSIAKFEVNNPQVQRQAFNELIRVVHQLLPESSLRKRKRSRC
ATMS1981*+ and γ-H2AX+ nuclear foci [5]: accumulation of ATMS1981*+ and γ-H2AX+ foci
ROS production induced by the treatment ([4]; 20 ng/ml mIFN-γ (FIGS. 4C, 4D)): induced ROS production
NOX2 up-regulated (immunoblot) ([1]; 20 ng/ml mIFN-γ, 24 hours (FIG. 5E)): confirmed
ATM activation (ATMS1981*) by the agent ([1]; 20 ng/ml mIFN-γ): activation of ATM
IRF5 expression induced by the agent ([1]; 20 ng/ml mIFN-γ): increased expression of IRF5
